Results: US8268827B2, “Pyridazinone derivatives as PARP inhibitors” (Istituto di Ricerche di Biologia Molecolare P. Angeletti …, priority 2007, dated 2012)

Tested on: BRCA-1 silenced HeLa cells (HeLa shBRCA1-GFP)
Experiment: Proliferation assay in BRCA-1 silenced HeLa cells
Format: cell-based
Conditions: Homo sapiens; BRCA1 silenced HeLa cells, 168 hours; read-out: CC50 in the BRCA1 silenced HeLa cells
Procedure, shortened: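 Antiproliferative effect was read by Celltiter Blue fluorescence after 168 h of compound treatment at 37° C., 5% CO2. Cells were matched HeLa pairs, BRCA1-shRNA (>80% silenced, GFP) versus non-shRNA vector control, in DMEM with 10% FCS.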

**Q.** CCC1CN(C(=O)c2cc(Cc3n[nH]c(=O)c(C)c3C)ccc2F)CC(=O)N1C1CCCCC1 (stereo not drawn) [Example 184, 6-{3-[(4-Cyclohexyl-3-ethyl-5-oxopiperazin-1-yl)carbonyl]-4-fluorobenzyl}-4,5-dimethylpyridazin-3(2H)-one] was tested. Which CC50 did it give?
**A.** Its CC50 is 50 to 500 nM.

**Q.** Which CC50 does the source give for CCC1CN(C(=O)c2cc(Cc3n[nH]c(=O)c(C)c3C)ccc2F)CC(=O)N1C1CCCC1 (stereo not drawn) [Example 186, 6-{3-[(4-Cyclopentyl-3-ethyl-5-oxopiperazin-1-yl)carbonyl]-4-fluorobenzyl}-4,5-dimethylpyridazin-3(2H)-one] here?
**A.** Its CC50 is under 5000 nM.

**Q.** How did the CC50 turn out when Cc1c(Cc2ccc(F)c(C(=O)N3CC(=O)N(c4ccc(Cl)c(F)c4)[C@H](C)C3)c2)n[nH]c(=O)c1C [Example 187, 6-(3-{[(3R)-4-(4-Chloro-3-fluorophenyl)-3-methyl-5-oxopiperazin-1-yl]carbonyl}-4-fluorobenzyl)-4,5-dimethylpyridazin-3(2H)-one] was run?
**A.** The CC50 was under 50 nM.

**Q.** For Cc1c(Cc2ccc(F)c(C(=O)N3CC(=O)N(C4CC(F)(F)C4)C(C)C3)c2)n[nH]c(=O)c1C (stereo not drawn) [Example 188, 6-(3-{[4-(3,3-Difluorocyclobutyl)-3-methyl-5-oxopiperazin-1-yl]carbonyl}-4-fluorobenzyl)-4,5-dimethylpyridazin-3(2H)-one], which CC50 is on record?
**A.** The CC50 was under 50 nM.

**Q.** Which CC50 does the source give for Cc1c(Cc2ccc(F)c(C(=O)N3CC(=O)N(c4ccc(C#N)cc4)[C@H](C)C3)c2)n[nH]c(=O)c1C [Example 189, 4-((2R)-4-{5-[(4,5-Dimethyl-6-oxo-1,6-dihydropyridazin-3-yl)methyl]-2-fluorobenzoyl}-2-methyl-6-oxopiperazin-1-yl)benzonitrile] here?
**A.** The CC50 was under 50 nM.

**Q.** Which CC50 does the source give for Cc1c(Cc2ccc(F)c(C(=O)N3CC(=O)N(c4ccc(C#N)c(F)c4)[C@H](C)C3)c2)n[nH]c(=O)c1C [Example 191, 4-((2R)-4-{5-[(4,5-Dimethyl-6-oxo-1,6-dihydropyridazin-3-yl)methyl]-2-fluorobenzoyl}-2-methyl-6-oxopiperazin-1-yl)-2-fluorobenzonitrile] here?
**A.** Its CC50 is under 50 nM.

**Q.** With Cc1c(Cc2ccc(F)c(C(=O)N3CCN([C@@H](C)C(F)(F)F)C(=O)C3)c2)n[nH]c(=O)c1C [Example 192, 6-[4-Fluoro-3-({3-oxo-4-[(1S)-2,2,2-trifluoro-1-methylethyl]piperazin-1-yl}carbonyl)benzyl]-4,5-dimethylpyridazin-3(2H)-one] as the compound, how does the CC50 read?
**A.** The CC50 was 50 to 500 nM.

**Q.** With Cc1c(Cc2ccc(F)c(C(=O)N3CC(=O)N(c4cc(F)cc(F)c4)[C@H](C)C3)c2)n[nH]c(=O)c1C [Example 193, 6-(3-{[(3R)-4-(3,5-Difluorophenyl)-3-methyl-5-oxopiperazin-1-yl]carbonyl}-4-fluorobenzyl)-4,5-dimethylpyridazin-3(2H)-one] as the compound, how does the CC50 read?
**A.** The CC50 was under 50 nM.

**Q.** Which CC50 does the source give for Cc1c(Cc2ccc(F)c(C(=O)N3CC(=O)N(c4ccc(Cl)cc4)[C@H](C)C3)c2)n[nH]c(=O)c1C [Example 194, 6-(3-{[(3R)-4-(4-Chlorophenyl)-3-methyl-5-oxopiperazin-1-yl]carbonyl}-4-fluorobenzyl)-4,5-dimethylpyridazin-3(2H)-one] here?
**A.** The CC50 was under 50 nM.

**Q.** With Cc1c(Cc2ccc(F)c(C(=O)N3CC(=O)N(c4cccs4)[C@H](C)C3)c2)n[nH]c(=O)c1C [Example 195, 6-(4-Fluoro-3-{[(3R)-3-methyl-5-oxo-4-(2-thienyl)piperazin-1-yl]carbonyl}benzyl)-4,5-dimethylpyridazin-3(2H)-one] as the compound, how does the CC50 read?
**A.** The CC50 was under 50 nM.

**Q.** Cc1c(Cc2ccc(F)c(C(=O)N3CC(=O)N(c4ccc(Cl)cc4F)[C@H](C)C3)c2)n[nH]c(=O)c1C [Example 196, 6-(3-{[(3R)-4-(4-Chloro-2-fluorophenyl)-3-methyl-5-oxopiperazin-1-yl]carbonyl}-4-fluorobenzyl)-4,5-dimethylpyridazin-3(2H)-one] was tested. Which CC50 did it give?
**A.** The CC50 was under 50 nM.

**Q.** For Cc1c(Cc2ccc(F)c(C(=O)N3CC(=O)N(c4ccc(F)c(C#N)c4)[C@H](C)C3)c2)n[nH]c(=O)c1C [Example 197, 5-((2R)-4-{5-[(4,5-Dimethyl-6-oxo-1,6-dihydropyridazin-3-yl)methyl]-2-fluorobenzoyl}-2-methyl-6-oxopiperazin-1-yl)-2-fluorobenzonitrile], which CC50 is on record?
**A.** Its CC50 is under 50 nM.

**Q.** For Cc1c(Cc2ccc(F)c(C(=O)N3CC(=O)N(c4cc(F)cc(Cl)c4)[C@H](C)C3)c2)n[nH]c(=O)c1C [Example 198, 6-(3-{[(3R)-4-(3-Chloro-5-fluorophenyl)-3-methyl-5-oxopiperazin-1-yl]carbonyl}-4-fluorobenzyl)-4,5-dimethylpyridazin-3(2H)-one], which CC50 is on record?
**A.** The CC50 was under 50 nM.

**Q.** Which CC50 does the source give for Cc1c(Cc2ccc(F)c(C(=O)N3CC(=O)N(c4ccc(F)c(Cl)c4)[C@H](C)C3)c2)n[nH]c(=O)c1C [Example 199, 6-(3-{[(3R)-4-(3-Chloro-4-fluorophenyl)-3-methyl-5-oxopiperazin-1-yl]carbonyl}-4-fluorobenzyl)-4,5-dimethylpyridazin-3(2H)-one] here?
**A.** The CC50 was under 50 nM.

**Q.** Cc1c(Cc2ccc(F)c(C(=O)N3CCN([C@H](C)C(F)(F)F)C(=O)C3)c2)n[nH]c(=O)c1C [Example 200, 6-[4-Fluoro-3-({3-oxo-4-[(1R)-2,2,2-trifluoro-1-methylethyl]piperazin-1-yl}carbonyl)benzyl]-4,5-dimethylpyridazin-3(2H)-one] was tested. Which CC50 did it give?
**A.** The CC50 was under 50 nM.

**Q.** How did the CC50 turn out when Cc1c(Cc2ccc(F)c(C(=O)N3CC(=O)N(c4ccc(C#N)cc4F)[C@H](C)C3)c2)n[nH]c(=O)c1C [Example 201, 4-((2R)-4-{5-[(4,5-Dimethyl-6-oxo-1,6-dihydropyridazin-3-yl)methyl]-2-fluorobenzoyl}-2-methyl-6-oxopiperazin-1-yl)-3-fluorobenzonitrile] was run?
**A.** The CC50 was under 50 nM.

**Q.** For Cc1c(Cc2ccc(F)c(C(=O)N3CC(=O)N(c4cc(F)cc(C#N)c4)[C@H](C)C3)c2)n[nH]c(=O)c1C [Example 202, 3-((2R)-4-{5-[(4,5-Dimethyl-6-oxo-1,6-dihydropyridazin-3-yl)methyl]-2-fluorobenzoyl}-2-methyl-6-oxopiperazin-1-yl)-5-fluorobenzonitrile], which CC50 is on record?
**A.** The CC50 was under 50 nM.

**Q.** With Cc1c(Cc2ccc(F)c(C(=O)N3CC(=O)N(c4ccc(F)c(F)c4)[C@H](C)C3)c2)n[nH]c(=O)c1C [Example 203, 6-(3-{[(3R)-4-(3,4-Difluorophenyl)-3-methyl-5-oxopiperazin-1-yl]carbonyl}-4-fluorobenzyl)-4,5-dimethylpyridazin-3(2H)-one] as the compound, how does the CC50 read?
**A.** Its CC50 is under 50 nM.

**Q.** Which CC50 does the source give for Cc1c(Cc2ccc(F)c(C(=O)N3CCN(C(C)C4CC4)C(=O)C3)c2)n[nH]c(=O)c1C (stereo not drawn) [Example 204, 6-(3-{[4-(1-Cyclopropylethyl)-3-oxopiperazin-1-yl]carbonyl}-4-fluorobenzyl)-4,5-dimethylpyridazin-3(2H)-one] here?
**A.** The CC50 was 50 to 500 nM.

**Q.** For Cc1c(Cc2ccc(F)c(C(=O)N3CC(=O)N(c4cc(Cl)ccc4F)[C@H](C)C3)c2)n[nH]c(=O)c1C [Example 205, 6-(3-{[(3R)-4-(5-Chloro-2-fluorophenyl)-3-methyl-5-oxopiperazin-1-yl]carbonyl}-4-fluorobenzyl)-4,5-dimethylpyridazin-3(2H)-one], which CC50 is on record?
**A.** Its CC50 is under 50 nM.

**Q.** Cc1c(Cc2ccc(F)c(C(=O)N3CC(=O)N(c4cccc(Cl)c4F)[C@H](C)C3)c2)n[nH]c(=O)c1C [Example 206, 6-(3-{[(3R)-4-(3-Chloro-2-fluorophenyl)-3-methyl-5-oxopiperazin-1-yl]carbonyl}-4-fluorobenzyl)-4,5-dimethylpyridazin-3(2H)-one] was tested. Which CC50 did it give?
**A.** Its CC50 is under 50 nM.
